In the assay the test system is 293T-HRE-GFP-luc cells. Kind of assay: Cell-based reporter assay for IC50 determinations. The conditions noted are these: hypoxia 6 hrs (1% O2), luminescence, read-out: IC50 Classification. The protocol:
Cell-Based Reporter Assay for IC50 Determinations
293T-HRE-GFP-luc cells were routinely maintained in DMEM media (high glucose version with GlutaMAX and HEPES, Gibco, catalog #10564) supplemented with 10% fetal bovine serum and 2 μg/mL puromycin (Invitrogen, catalog #A11138-03) using a humidified incubator (normoxia conditions consisting of 37° C., 5% CO2 and ambient O2).
In preparation for the reporter assay, cells were harvested and resuspended in DMEM media (high glucose version with GlutaMAX and HEPES) supplemented with 10% fetal bovine serum. Cells were inoculated into 384-well white Culturplates (Perkin Elmer catalog #6007680) at a density of 12,000 cells/well in a volume of 30 μL. The microplates were incubated overnight (approximately 17-19 hours) at 37° C. with 5% CO2 and ambient O2. Stock solutions of the test compounds were prepared in DMSO (Sigma, Catalog #D2650) and serially diluted 1:3 using DMSO. Compounds were additionally diluted (1:50) with culturemedium and 10 μL were added per well to the Culturplate. Following a 30 min. incubation under normoxia conditions, the plates were incubated in hypoxia for 6 hrs. (37° C., 5% CO2 and 1% O2). Steadylite Plus (Perkin Elmer, catalog #6016751) was then added (40 μL/well), the plates were mixed on an orbital shaker at room temperature in the dark for 15 min., and luminescence was measured using an Envision plate reader (Perkin Elmer). IC50 values were calculated using a four-parameter logistic curve fit. Results are shown below in Table 2; ND indicates no data.
In general terms: In a reporter assay the amount or activity of a reporter protein is the signal.

Counter-ions that a name gives are not always drawn.

The results in this text go back to US10208059B2, “Heterocyclic modulators of HIF activity for treatment of disease” (Board of Regents, University of Texas System, priority 2012, dated 2019).

With `Cc1nc(-c2nc(-c3ccccc3)no2)nn1Cc1ccnc(N2CCN(C)CC2)c1` [Example 29, 1-Methyl-4-(4-((5-methyl-3-(3-phenyl-1,2,4-oxadiazol-5-yl)-1H-1,2,4-triazol-1-yl)methyl)pyridin-1-ium-2-yl)piperazin-1-ium bis-trifluoroacetate], the half-maximal inhibitory concentration (IC50) (in general, the concentration at which inhibition is half-maximal) was in the range of 1 to 10 µM.
The same measure for `Cc1nc(-c2nc(-c3ccc(OC(F)(F)F)cc3)no2)nn1Cc1cccc(C(=O)NCCN(C)C)c1` [Example 30, N-(2-(Dimethylamino)ethyl)-3-((5-methyl-3-(3-(4-(trifluoromethoxy)phenyl)-1,2,4-oxadiazol-5-yl)-1H-1,2,4-triazol-1-yl)methyl)benzamide]: below 0.1 µM; for `Cc1nc(-c2nc(-c3ccc(OC(F)(F)F)cc3)no2)nn1Cc1ccnc(N2CCC(C)(C)CC2)c1` [Example 31, 5-(1-((2-(4,4-Dimethylpiperidin-1-yl)pyridin-4-yl)methyl)-5-methyl-1H-1,2,4-triazol-3-yl)-3-(4-(trifluoromethoxy)phenyl)-1,2,4-oxadiazole]: below 0.1 µM.
The same measure for `COCCCNc1cc(Cn2nc(-c3nc(-c4ccc(OC(F)(F)F)cc4)no3)nc2C)ccn1` [Example 32, N-(3-Methoxypropyl)-4-((5-methyl-3-(3-(4-(trifluoromethoxy)phenyl)-1,2,4-oxadiazol-5-yl)-1H-1,2,4-triazol-1-yl)methyl)pyridin-2-amine]: below 0.1 µM; for `CCc1nc(-c2nc(-c3ccc(OC(F)(F)F)cc3)no2)nn1Cc1ccccc1` [Example 33, 5-(1-Benzyl-5-ethyl-1H-1,2,4-triazol-3-yl)-3-(4-(trifluoromethoxy)phenyl)-1,2,4-oxadiazole]: 1 to 10 µM; for `FC(F)(F)Oc1ccc(-c2noc(-c3nc(C4CC4)n(Cc4ccccc4)n3)n2)cc1` [Example 34, 5-(1-Benzyl-5-cyclopropyl-1H-1,2,4-triazol-3-yl)-3-(4-(trifluoromethoxy)phenyl)-1,2,4-oxadiazole]: 1 to 10 µM.
For the compound `Cc1nc(-c2nc(-c3ccc(OC(F)(F)F)cc3)no2)nn1Cc1ccnc(NCCN2CCOCC2)c1` [Example 35, 4-((5-Methyl-3-(3-(4-(trifluoromethoxy)phenyl)-1,2,4-oxadiazol-5-yl)-1H-1,2,4-triazol-1-yl)methyl)-N-(2-morpholinoethyl)pyridin-2-amine], the IC50 was below 0.1 µM.
The same measure for `CNc1cc(Cn2nc(-c3nc(-c4ccc(OC(F)(F)F)cc4)no3)nc2C)ccn1` [Example 36, N-Methyl-4-((5-methyl-3-(3-(4-(trifluoromethoxy)phenyl)-1,2,4-oxadiazol-5-yl)-1H-1,2,4-triazol-1-yl)methyl)pyridin-2-amine]: below 0.1 µM.
For `Cc1nc(-c2nc(-c3ccc(OC(F)(F)F)cc3)no2)nn1Cc1ccnc(N(C)C)c1` [Example 37, N,N-Dimethyl-4-((5-methyl-3-(3-(4-(trifluoromethoxy)phenyl)-1,2,4-oxadiazol-5-yl)-1H-1,2,4-triazol-1-yl)methyl)pyridin-2-amine] the value was below 0.1 µM; for `CC(=O)N1CCN(c2cc(Cn3nc(-c4nc(-c5ccc(OC(F)(F)F)cc5)no4)nc3C)ccn2)CC1` [Example 38, 1-(4-(4-((5-Methyl-3-(3-(4-(trifluoromethoxy)phenyl)-1,2,4-oxadiazol-5-yl)-1H-1,2,4-triazol-1-yl)methyl)pyridin-2-yl)piperazin-1-yl)ethanone], below 0.1 µM.
The same measure for `Cc1nc(-c2nc(-c3ccc(OC(F)(F)F)cc3)no2)nn1Cc1cccc(C(=O)NCCO)c1` [Example 39, N-(2-Hydroxyethyl)-3-((5-methyl-3-(3-(4-(trifluoromethoxy)phenyl)-1,2,4-oxadiazol-5-yl)-1H-1,2,4-triazol-1-yl)methyl)benzamide]: 0.1 to 1 µM; for `Cc1nc(-c2nc(-c3ccc(OC(F)(F)F)cc3)no2)nn1Cc1cccc(C(=O)N(C)C)c1` [Example 40, N,N-Dimethyl-3-((5-methyl-3-(3-(4-(trifluoromethoxy)phenyl)-1,2,4-oxadiazol-5-yl)-1H-1,2,4-triazol-1-yl)methyl)benzamide]: below 0.1 µM.
As to `COCCCNC(=O)c1ccc(Cn2nc(-c3nc(-c4ccc(OC(F)(F)F)cc4)no3)nc2C)cc1` [Example 41, N-(3-Methoxypropyl)-4-((5-methyl-3-(3-(4-(trifluoromethoxy)phenyl)-1,2,4-oxadiazol-5-yl)-1H-1,2,4-triazol-1-yl)methyl)benzamide], the IC50 fell in the range of 0.1 to 1 µM.
The same measure for `Cc1nc(-c2nc(-c3ccc(OC(F)(F)F)cc3)no2)nn1Cc1ccc(C(=O)N2CCN(C)CC2)cc1` [Example 42, (4-((5-Methyl-3-(3-(4-(trifluoromethoxy)phenyl)-1,2,4-oxadiazol-5-yl)-1H-1,2,4-triazol-1-yl)methyl)phenyl)(4-methylpiperazin-1-yl)methanone]: 0.1 to 1 µM; for `Cc1nc(-c2nc(-c3ccc(OC(F)(F)F)cc3)no2)nn1Cc1ccnc(N2CCS(=O)(=O)CC2)c1` [Example 43, 2-(1,1-Dioxidothiomorpholino)-4-((5-methyl-3-(3-(4-(trifluoromethoxy)phenyl)-1,2,4-oxadiazol-5-yl)-1H-1,2,4-triazol-1-yl)methyl)pyridin-1-ium trifluoroacetate]: 0.1 to 1 µM.
`Cc1nc(-c2nc(-c3ccc(OC(F)(F)F)cc3)no2)nn1Cc1cccc(N2CCOCC2)c1` [Example 44, 4-(3-((5-Methyl-3-(3-(4-(trifluoromethoxy)phenyl)-1,2,4-oxadiazol-5-yl)-1H-1,2,4-triazol-1-yl)methyl)phenyl)morpholine]: the IC50 was below 0.1 µM.
For `Cc1nc(-c2nc(-c3ccc(OC(F)(F)F)cc3)no2)nn1Cc1ccnc(NCCN(C)C)c1` [Example 45, N1,N1-Dimethyl-N2-(4-((5-methyl-3-(3-(4-(trifluoromethoxy)phenyl)-1,2,4-oxadiazol-5-yl)-1H-1,2,4-triazol-1-yl)methyl)pyridin-2-yl)ethane-1,2-diamine] the value was 1 to 10 µM; for `Cc1nc(-c2nc(-c3ccc(OC(F)(F)F)cc3)no2)nn1Cc1ccnc(NCCN2CCCC2)c1` [Example 46, 4-((5-Methyl-3-(3-(4-(trifluoromethoxy)phenyl)-1,2,4-oxadiazol-5-yl)-1H-1,2,4-triazol-1-yl)methyl)-N-(2-(pyrrolidin-1-yl)ethyl)pyridin-2-amine], 1 to 10 µM; for `Cc1nc(-c2nc(-c3ccc(OC(F)(F)F)cc3)no2)nn1Cc1ccc(Cl)s1` [Example 47, 5-(1-((5-Chlorothiophen-2-yl)methyl)-5-methyl-1H-1,2,4-triazol-3-yl)-3-(4-(trifluoromethoxy)phenyl)-1,2,4-oxadiazole], 0.1 to 1 µM.
With `Cc1cc(Cn2nc(-c3nc(-c4ccc(OC(F)(F)F)cc4)no3)nc2C)n(C)n1` [Example 48, 5-(1-((1,3-Dimethyl-1H-pyrazol-5-yl)methyl)-5-methyl-1H-1,2,4-triazol-3-yl)-3-(4-(trifluoromethoxy)phenyl)-1,2,4-oxadiazole], the 50% inhibitory concentration (IC50) was 0.1 to 1 µM.
For `Cc1nc(-c2nc(-c3ccc(OC(F)(F)F)cc3)no2)nn1Cc1cc(=O)n2ccsc2n1` [Example 49, 7-((5-Methyl-3-(3-(4-(trifluoromethoxy)phenyl)-1,2,4-oxadiazol-5-yl)-1H-1,2,4-triazol-1-yl)methyl)-5H-thiazolo[3,2-a]pyrimidin-5-one], the concentration for half-maximal inhibition (IC50) is 0.1 to 1 µM.
As to `Cc1nc(-c2nc(-c3ccc(OC(F)(F)F)cc3)no2)nn1Cc1cccc(N2CCCC2)c1` [Example 50, 5-(5-Methyl-1-(3-(pyrrolidin-1-yl)benzyl)-1H-1,2,4-triazol-3-yl)-3-(4-(trifluoromethoxy)phenyl)-1,2,4-oxadiazole], the 50% inhibitory concentration (IC50) fell in the range of 0.1 to 1 µM.
For `Cc1nc(-c2nc(-c3ccc(OC(F)(F)F)cc3)no2)nn1Cc1cccc(N2CCC(C#N)CC2)c1` [Example 51, 1-(3-((5-Methyl-3-(3-(4-(trifluoromethoxy)phenyl)-1,2,4-oxadiazol-5-yl)-1H-1,2,4-triazol-1-yl)methyl)phenyl)piperidine-4-carbonitrile] the value was below 0.1 µM; for `Cc1nc(-c2nc(-c3ccc(OC(F)(F)F)cc3)no2)nn1Cc1cccc(N(C)C)c1` [Example 52, N,N-Dimethyl-3-((5-methyl-3-(3-(4-(trifluoromethoxy)phenyl)-1,2,4-oxadiazol-5-yl)-1H-1,2,4-triazol-1-yl)methyl)aniline], below 0.1 µM; for `COCCCNc1cccc(Cn2nc(-c3nc(-c4ccc(OC(F)(F)F)cc4)no3)nc2C)c1` [Example 53, N-(3-Methoxypropyl)-3-((5-methyl-3-(3-(4-(trifluoromethoxy)phenyl)-1,2,4-oxadiazol-5-yl)-1H-1,2,4-triazol-1-yl)methyl)aniline], below 0.1 µM.
For `Cc1nc(-c2nc(-c3ccc(OC(F)(F)F)cc3)no2)nn1Cc1cnccn1` [Example 54, 5-(5-Methyl-1-(pyrazin-2-ylmethyl)-1H-1,2,4-triazol-3-yl)-3-(4-(trifluoromethoxy)phenyl)-1,2,4-oxadiazole] the value was 1 to 10 µM.
For `Cc1nc(-c2nc(-c3ccc(OC(F)(F)F)cc3)no2)nn1Cc1ccnc(N2CCOCC2)n1` [Example 55, 4-(4-((5-Methyl-3-(3-(4-(trifluoromethoxy)phenyl)-1,2,4-oxadiazol-5-yl)-1H-1,2,4-triazol-1-yl)methyl)pyrimidin-2-yl)morpholine] the value was below 0.1 µM.
